Drawing on patent publication US20050159460A1, “Peptide isosteres containing a heterocycle useful in the treatment of alzheimer's disease” (Elan Pharmaceuticals, priority 2001, published 2005), this text covers melting point for one compound.

Usually melting point stands for the temperature of the solid-liquid transition.

Molecules are shown by their SMILES.

As for `CC(C)(C)OC(=O)[C@@H](C(N)c1ccccc1)[C@@H](O)C[C@@H](Cc1ccccc1)c1ncc2n1C(O)C(C)(C)C2=O` (stereo partly drawn) [Example 31, 3-[(1R,3S,4S)-1-benzyl-4-t-butoxycarbonyl-amino-3-hydroxy-5-phenylpentyl]-6,6-dimethyl-5-hydroxy-pyrrolo-[1,2-c]-imidazol-7-one], the melting point was in the range of 88 to 90 °C.
